Test results reported in patent US12286437B2, “Cardiac sarcomere inhibitors” (Cytokinetics, Inc., priority 2021, dated 2025).
Like-named read-outs stand apart in the source and are kept apart here.

Legend:
CYP2D6 = target: T1, CYP2D6 (Homo sapiens, UniProt P10635); experiment: Time-dependent inhibition of CYP2D6 in human liver microsomes; assay type: in vitro ADME; conditions: for (% Activity NADPH T0)/(% Activity NADPH T30): fold change; for activity at 30 min, 25 µM / activity at 0 min, 25 µM / activity at 30 min, 50 µM / activity at 0 min, 50 µM: pooled human liver microsomes, human liver microsomes; for activity at 30 min, 25 µM / activity at 30 min, 50 µM: after 30 minutes incubation, read-out: % Activity NADPH T30; for activity at 0 min, 25 µM / activity at 0 min, 50 µM: time zero, read-out: % Activity NADPH T0
T1 construct: Pooled human microsomes and selective CYP probe substrates were used; from tissue; host or cells: pooled human liver microsomes
Experimental: (§1) An assessment of the time-dependent Inhibitory Potential of the test compounds against Principal Human Cytochrome P450 Isozymes using Human Liver Microsomes was also carried out using standard methods (Grimm et al, Drug Metab. Dispos., July; 37(7):1355-70. doi: 10.1124/dmd.109.026716, 2009). Pooled human microsomes and selective CYP probe substrates were used for in vitro assessment of test compounds at 25 and 50 μM as time-dependent inhibitors of […] human hepatic cytochrome P450 isozymes (CYP1A2, 2B6, 2C9, 2C19, 2D6, and 3A4). LC-MS/MS was used to quantify metabolite formation. The inhibition of each P450 enzyme in human liver microsomes was measured as the percentage decrease in the activity of marker metabolite formation as measured by LC-MS/MS compared to non-inhibited controls (=100% activity) at time zero and after 30 minutes incubation. The occurrence of any time dependent inhibition was then expressed as the fold change in enzyme activity at time zero relative to the activity after 30 minutes incubation.

[1] = Monkey cassette dosing pharmacokinetics; assay type: in vivo; conditions: IV; for clearance / Vd: male, plasma; for Vd: read-out: Vss
CYP1A2 = target: T2, CYP1A2 (Homo sapiens, UniProt P05177); experiment: Time-dependent inhibition of CYP1A2 in human liver microsomes; assay type: in vitro ADME; conditions: for (% Activity NADPH T0)/(% Activity NADPH T30): fold change; for activity at 30 min, 25 µM / activity at 0 min, 25 µM / activity at 30 min, 50 µM / activity at 0 min, 50 µM: pooled human liver microsomes, human liver microsomes; for activity at 30 min, 25 µM / activity at 30 min, 50 µM: after 30 minutes incubation, read-out: % Activity NADPH T30; for activity at 0 min, 25 µM / activity at 0 min, 50 µM: time zero, read-out: % Activity NADPH T0
T2 construct: Pooled human microsomes and selective CYP probe substrates were used; from tissue; host or cells: pooled human liver microsomes
T2 sequence (P05177 1-516): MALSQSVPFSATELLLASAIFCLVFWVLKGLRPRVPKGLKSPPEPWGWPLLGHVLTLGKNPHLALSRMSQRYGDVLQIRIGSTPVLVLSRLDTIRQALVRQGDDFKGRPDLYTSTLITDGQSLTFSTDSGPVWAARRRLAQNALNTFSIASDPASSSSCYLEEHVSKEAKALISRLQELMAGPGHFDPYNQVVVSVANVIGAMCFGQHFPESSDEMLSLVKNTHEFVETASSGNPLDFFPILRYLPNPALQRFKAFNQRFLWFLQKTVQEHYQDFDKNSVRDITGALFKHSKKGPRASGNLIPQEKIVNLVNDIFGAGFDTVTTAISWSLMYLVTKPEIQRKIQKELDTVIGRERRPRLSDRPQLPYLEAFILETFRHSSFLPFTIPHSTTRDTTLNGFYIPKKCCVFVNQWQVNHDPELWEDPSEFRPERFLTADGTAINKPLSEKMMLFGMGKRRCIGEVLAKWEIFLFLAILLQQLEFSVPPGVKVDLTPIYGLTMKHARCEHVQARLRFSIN
Experimental: as §1

[2] = system: bovine cardiac myofibrils; experiment: Myofibril assay (ATPase activity of skinned bovine cardiac myofibrils, PK/LDH-coupled); assay type: biochemical; conditions: inhibition of steady-state ATPase of bovine cardiac myofibrils; CaCl2 for 50% or 75% activation
Summary of the method: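 Steady-state ATPase of detergent-skinned bovine left-ventricular myofibrils (1 mg/mL), PK/LDH-coupled NADH read at 340 nm, in PIPES/MgCl2 buffer pH 6.8 with 50 μM ATP, 0.6 mM EGTA and CaCl2 set for 50% or 75% activation. Inhibition of activity measured.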

CYP3A4 = target: T3, CYP3A4 (Homo sapiens, UniProt P08684); experiment: Time-dependent inhibition of CYP3A4 in human liver microsomes (testosterone and midazolam probes); assay type: in vitro ADME; conditions: for (% Activity NADPH T0)/(% Activity NADPH T30): fold change; for activity at 30 min, 25 µM / activity at 30 min, 50 µM: human, after 30 minutes incubation, read-out: % Activity NADPH T30; for activity at 30 min, 25 µM / activity at 30 min, 50 µM / activity at 0 min, 25 µM / activity at 0 min, 50 µM: pooled human liver microsomes; for activity at 0 min, 25 µM / activity at 0 min, 50 µM: human liver microsomes, time zero, read-out: % Activity NADPH T0
T3 construct: Pooled human microsomes and selective CYP probe substrates were used; from tissue; host or cells: pooled human liver microsomes
Experimental: as §1

CYP2B6 = target: T4, CYP2B6 (Homo sapiens, UniProt P20813); experiment: Time-dependent inhibition of CYP2B6 in human liver microsomes; assay type: in vitro ADME; conditions: for (% Activity NADPH T0)/(% Activity NADPH T30): fold change; for activity at 30 min, 25 µM / activity at 0 min, 25 µM / activity at 30 min, 50 µM / activity at 0 min, 50 µM: pooled human liver microsomes, human liver microsomes; for activity at 30 min, 25 µM / activity at 30 min, 50 µM: after 30 minutes incubation, read-out: % Activity NADPH T30; for activity at 0 min, 25 µM / activity at 0 min, 50 µM: time zero, read-out: % Activity NADPH T0
T4 construct: Pooled human microsomes and selective CYP probe substrates were used; from tissue; host or cells: pooled human liver microsomes
T4 sequence (P20813 1-491): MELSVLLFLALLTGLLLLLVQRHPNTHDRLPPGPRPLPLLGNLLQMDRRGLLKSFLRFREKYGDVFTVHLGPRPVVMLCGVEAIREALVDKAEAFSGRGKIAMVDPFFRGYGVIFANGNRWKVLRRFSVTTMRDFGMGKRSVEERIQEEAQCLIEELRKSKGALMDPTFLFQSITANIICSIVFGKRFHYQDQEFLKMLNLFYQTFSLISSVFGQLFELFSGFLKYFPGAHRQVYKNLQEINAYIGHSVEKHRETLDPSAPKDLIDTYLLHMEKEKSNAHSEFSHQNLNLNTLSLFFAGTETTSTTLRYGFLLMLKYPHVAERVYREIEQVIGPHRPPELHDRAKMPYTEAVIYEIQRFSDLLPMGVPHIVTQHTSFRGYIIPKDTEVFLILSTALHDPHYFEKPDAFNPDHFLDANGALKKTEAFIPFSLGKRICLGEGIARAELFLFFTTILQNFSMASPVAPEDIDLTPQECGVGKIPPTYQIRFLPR
Experimental: as §1

[3] = CYP3A4-M (midazolam probe substrate), 25 μM
[4] = CYP3A4-M (midazolam probe substrate), 50 μM
[5] = CYP3A4-T (testosterone probe substrate), 25 μM
[6] = CYP3A4-T (testosterone probe substrate), 50 μM

T1 sequence (P10635 whole entry): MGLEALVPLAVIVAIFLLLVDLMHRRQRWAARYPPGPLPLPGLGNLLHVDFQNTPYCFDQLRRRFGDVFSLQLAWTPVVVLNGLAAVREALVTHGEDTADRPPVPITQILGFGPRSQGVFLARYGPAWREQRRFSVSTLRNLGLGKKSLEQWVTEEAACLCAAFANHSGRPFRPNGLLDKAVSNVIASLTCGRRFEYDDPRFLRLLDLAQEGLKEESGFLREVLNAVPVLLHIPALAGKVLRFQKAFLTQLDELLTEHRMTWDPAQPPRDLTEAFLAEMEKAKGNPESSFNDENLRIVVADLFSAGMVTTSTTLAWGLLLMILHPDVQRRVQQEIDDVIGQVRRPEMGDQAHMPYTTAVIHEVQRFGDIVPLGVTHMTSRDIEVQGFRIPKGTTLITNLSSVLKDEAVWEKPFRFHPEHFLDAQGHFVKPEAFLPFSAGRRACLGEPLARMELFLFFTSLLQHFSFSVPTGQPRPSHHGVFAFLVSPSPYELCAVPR
T3 sequence (P08684 whole entry): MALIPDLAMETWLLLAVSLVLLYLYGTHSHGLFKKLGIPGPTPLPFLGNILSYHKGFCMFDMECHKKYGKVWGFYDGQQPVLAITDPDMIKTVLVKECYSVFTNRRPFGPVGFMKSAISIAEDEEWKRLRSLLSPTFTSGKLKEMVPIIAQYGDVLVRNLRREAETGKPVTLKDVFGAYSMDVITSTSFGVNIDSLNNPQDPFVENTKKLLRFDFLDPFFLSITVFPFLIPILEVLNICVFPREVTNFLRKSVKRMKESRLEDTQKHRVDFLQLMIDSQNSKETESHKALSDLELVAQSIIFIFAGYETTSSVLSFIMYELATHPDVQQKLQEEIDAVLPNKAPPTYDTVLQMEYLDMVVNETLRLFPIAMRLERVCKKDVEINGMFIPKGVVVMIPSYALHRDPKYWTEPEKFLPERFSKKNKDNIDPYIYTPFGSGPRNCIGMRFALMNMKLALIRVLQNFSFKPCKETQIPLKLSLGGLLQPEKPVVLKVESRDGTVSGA

| (% Activity NADPH T0)/(% Activity NADPH T30) (CYP2D6; CYP2D6, 25 μM) | (% Activity NADPH T0)/(% Activity NADPH T30) (CYP2D6; CYP2D6, 50 μM) | activity at 30 min, 25 µM (CYP2D6; CYP2D6, 25 μM) | activity at 0 min, 25 µM (CYP2D6; CYP2D6, 25 μM) | activity at 30 min, 50 µM (CYP2D6; CYP2D6, 50 μM) | activity at 0 min, 50 µM (CYP2D6; CYP2D6, 50 μM) | t l/2 [1] | clearance [1] | Vd [1] | (% Activity NADPH T0)/(% Activity NADPH T30) (CYP1A2; CYP1A2, 25 μM) | (% Activity NADPH T0)/(% Activity NADPH T30) (CYP1A2; CYP1A2, 50 μM) | activity at 30 min, 25 µM (CYP1A2; CYP1A2, 25 μM) | activity at 0 min, 25 µM (CYP1A2; CYP1A2, 25 μM) | activity at 30 min, 50 µM (CYP1A2; CYP1A2, 50 μM) | activity at 0 min, 50 µM (CYP1A2; CYP1A2, 50 μM) | CDMF IC15 [2] | (% Activity NADPH T0)/(% Activity NADPH T30) (CYP3A4; [3]) | (% Activity NADPH T0)/(% Activity NADPH T30) (CYP3A4; [4]) | (% Activity NADPH T0)/(% Activity NADPH T30) (CYP3A4; [5]) | (% Activity NADPH T0)/(% Activity NADPH T30) (CYP3A4; [6]) | SMILES | also measured |
| --- | --- | --- | --- | --- | --- | --- | --- | --- | --- | --- | --- | --- | --- | --- | --- | --- | --- | --- | --- | --- | --- |
| 0.9 | 0.9 | 88% | 80% | 95% | 87% | 12.5 h | 10.2 mL/min/kg | 9.12 L/kg | 0.9 | 0.8 | 95% | 81% | 100% | 79% | 0.8 µM | 1.0 | 1.0 | 1.0 | 1.0 | C[C@H]1CC[C@H](N2CC(=O)N(Cc3ccc(F)c(Cl)c3)C3(CN(C(N)=O)C3)C2=O)CC1 [Compound 7, 5-(3-chloro-4-fluorobenzyl)-8-((1r,4r)-4-methylcyclohexyl)-6,9-dioxo-2,5,8-triazaspiro[3.5]nonane-2-carboxamide] | activity at 30 min, 25 µM (CYP3A4; [3]): 100%; activity at 30 min, 50 µM (CYP3A4; [4]): 100%; activity at 30 min, 25 µM (CYP3A4; [5]): 100%; activity at 30 min, 50 µM (CYP3A4; [6]): 100%; activity at 0 min, 25 µM (CYP3A4; [3]): 100%; activity at 0 min, 50 µM (CYP3A4; [4]): 100%; activity at 0 min, 25 µM (CYP3A4; [5]): 100%; activity at 0 min, 50 µM (CYP3A4; [6]): 100%; (% Activity NADPH T0)/(% Activity NADPH T30) (CYP2B6; CYP2B6, 25 μM): 0.9; (% Activity NADPH T0)/(% Activity NADPH T30) (CYP2B6; CYP2B6, 50 μM): 1.1; activity at 30 min, 25 µM (CYP2B6; CYP2B6, 25 μM): 74%; activity at 0 min, 25 µM (CYP2B6; CYP2B6, 25 μM): 70%; activity at 30 min, 50 µM (CYP2B6; CYP2B6, 50 μM): 70%; activity at 0 min, 50 µM (CYP2B6; CYP2B6, 50 μM): 78% |
| 0.9 | 1.0 | 98% | 92% | 91% | 87% | 3.72 h | 20.2 mL/min/kg | 4.76 L/kg | 0.9 | 0.9 | 96% | 82% | 101% | 86% | 1.3 µM | 1.0 | 1.0 | 1.0 | 1.0 | CC(C)N1CC(=O)N(Cc2ccc(Cl)c(F)c2)C2(CN(c3cccnn3)C2)C1=O [Compound 8, 5-(4-chloro-3-fluorobenzyl)-8-isopropyl-2-(pyridazin-3-yl)-2,5,8-triazaspiro[3.5]nonane-6,9-dione] | activity at 30 min, 25 µM (CYP3A4; [3]): 100%; activity at 30 min, 50 µM (CYP3A4; [4]): 100%; activity at 30 min, 25 µM (CYP3A4; [5]): 100%; activity at 30 min, 50 µM (CYP3A4; [6]): 100%; activity at 0 min, 25 µM (CYP3A4; [3]): 100%; activity at 0 min, 50 µM (CYP3A4; [4]): 100%; activity at 0 min, 25 µM (CYP3A4; [5]): 100%; activity at 0 min, 50 µM (CYP3A4; [6]): 100%; (% Activity NADPH T0)/(% Activity NADPH T30) (CYP2B6; CYP2B6, 25 μM): 0.9; (% Activity NADPH T0)/(% Activity NADPH T30) (CYP2B6; CYP2B6, 50 μM): 0.9; activity at 30 min, 25 µM (CYP2B6; CYP2B6, 25 μM): 97%; activity at 0 min, 25 µM (CYP2B6; CYP2B6, 25 μM): 83%; activity at 30 min, 50 µM (CYP2B6; CYP2B6, 50 μM): 100%; activity at 0 min, 50 µM (CYP2B6; CYP2B6, 50 μM): 88% |
